Laboratory results: patent US4436751A, “Nitrobenzyl monates antibacterial compounds” (Beecham Group Limited, priority 1980, dated 1984)
Values after ≈ are worked out from the molar mass of the structure shown. Where two headings read alike, the source gives them in different places.

Assays:
Format in all cases: cell-based
[1] = tested on: M. bovigenitalium ATOC 14173; experiment: Anti-mycoplasmal MIC in vitro, Friis broth agarose (Table 1); settings: 144 h
M. hyorhinis ATCC 23234 = experiment: as above; settings: Mesomycoplasma hyorhinis, ATCC23234, 144 h
M. suipneumoniae Str. 11 = experiment: as above; settings: Mesomycoplasma hyopneumoniae, STR.11, 144 h
M. suipneumoniae OCD 1 = experiment: as above; settings: Mesomycoplasma hyopneumoniae, OCD1, 144 h
M. suipneumoniae LABER = experiment: as above; settings: Mesomycoplasma hyopneumoniae, 144 h
M. suipneumoniae MS 16 = experiment: as above; settings: Mesomycoplasma hyopneumoniae, MS16, 144 h
M. gallisepticum S6 = experiment: as above; settings: Mycoplasmoides gallisepticum, S6, 144 h
S. typhimurium S18 = experiment: Veterinary bacteria MIC, Diagnostic Sensitivity Test Agar (Table 2); settings: Salmonella enterica
Method: (§1) The values were determined using a two fold serial dilutions in Diagnostic Sensitivity Test Agar with an inoculum of 10^4 organisms and incubation for 18 hours at 37° C.

S. dublin S7 = experiment: as above; settings: Salmonella enterica
Method: as §1

Staph. aureus B4 = experiment: as above; settings: Staphylococcus aureus
Method: as §1

Staph. aureus Oxford = experiment: as above; settings: Staphylococcus aureus
Method: as §1

Bord. bronchiseptica BO8 = experiment: as above; settings: Bordetella bronchiseptica, BO8, 18 h
Method: as §1

Strep. agalactiae SPA1 = experiment: as above; settings: Streptococcus agalactiae
Method: as §1

Past. haemolytica PA5 = experiment: as above; settings: Mannheimia haemolytica, PA5, 18 h
Method: as §1

E. Coli E1 = experiment: as above; settings: Escherichia coli
Method: as §1

Bord. bronchiseptica BO9 = experiment: as above; settings: Bordetella bronchiseptica
Method: as §1

Past. multocida PA2 = experiment: as above; settings: Pasteurella multocida
Method: as §1

Staph. aureus 152 = experiment: as above
Method: as §1

[2] = tested on: Strep. suis (group D) SPS11; experiment: as above; settings: Streptococcus suis, 18 h
Method: as §1

[3] = tested on: Erysipelothrix rhusiopathiae NCTC 8163; experiment: as above
Method: as §1

[4] = tested on: Corynebacterium pyogenes CY1; experiment: as above; settings: Trueperella pyogenes, CY1, 18 h
Method: as §1

E. Coli NCTC 10418 = experiment: as above; settings: Escherichia coli
Method: as §1

Strep. dylgalactiae SPD1 = experiment: as above
Method: as §1

Past. multocida PA1 = experiment: as above; settings: Pasteurella multocida
Method: as §1

Strep. uberis SPO1 = experiment: as above; settings: Streptococcus uberis
Method: as §1

[5] = tested on: M. suipneumoniae PW/C/210; experiment: Anti-mycoplasmal MIC in vitro, Friis broth agarose (Table 1); settings: Mesomycoplasma hyopneumoniae, 144 h
M. bovis RCTC 10131 = experiment: microbe, parasite or virus in culture; settings: RCTC10131, 144 h
[6] = tested on: M. suipneumoniae ATCC 25095; experiment: Anti-mycoplasmal MIC in vitro, Friis broth agarose (Table 1); settings: Mesomycoplasma hyopneumoniae, ATCC25095, 144 h
[7] = Staphylococcus aureus, 152, 18 h
[8] = Erysipelothrix rhusiopathiae, NCTC8163, 18 h

Structure (SMILES): C/C(=C\C(=O)OCc1ccc([N+](=O)[O-])cc1)CC1OCC(CC2OC2C(C)C(C)O)C(O)C1O (stereo not drawn) [Example 1, p-nitrobenzyl monate A]
- MIC [1]: < 0.01 µg/mL
- MIC (M. hyorhinis ATCC 23234): 0.05 µg/mL (≈ 0.104 µM)
- MIC (M. suipneumoniae Str. 11): 0.05 µg/mL (≈ 0.104 µM)
- MIC (M. suipneumoniae OCD 1; M. suipneumoniae OCD 1, in vitro, 6 days 37° C., read-out: MIC): 0.1 µg/mL (≈ 0.209 µM)
- MIC (M. suipneumoniae LABER): 0.05 µg/mL (≈ 0.104 µM)
- MIC (M. suipneumoniae MS 16): 0.05 µg/mL (≈ 0.104 µM)
- MIC (M. gallisepticum S6): 0.25 µg/mL (≈ 0.521 µM)
- MIC (S. typhimurium S18; S. typhimurium S18, DST Agar, 10^4 organisms, 18 hours 37° C., read-out: MIC): 40 µg/mL (≈ 83.4 µM)
- MIC (S. dublin S7; S. dublin S7, DST Agar, 10^4 organisms, 18 hours 37° C., read-out: MIC): 40 µg/mL (≈ 83.4 µM)
- MIC (Staph. aureus B4; Staph. aureus B4, DST Agar, 10^4 organisms, 18 hours 37° C., read-out: MIC): 0.156 µg/mL (≈ 0.325 µM)
- MIC (Staph. aureus Oxford; Staph. aureus Oxford, DST Agar, 10^4 organisms, 18 hours 37° C., read-out: MIC): 0.156 µg/mL (≈ 0.325 µM)
- MIC (Bord. bronchiseptica BO8): 5 µg/mL (≈ 10.4 µM)
- MIC (Strep. agalactiae SPA1; Strep. agalactiae SPA1, DST Agar, 10^4 organisms, 18 hours 37° C., read-out: MIC): 0.317 µg/mL (≈ 0.661 µM)
- MIC (Past. haemolytica PA5): 1.25 µg/mL (≈ 2.61 µM)
- MIC (E. Coli E1; E. Coli E1, DST Agar, 10^4 organisms, 18 hours 37° C., read-out: MIC): 40 µg/mL (≈ 83.4 µM)
- MIC (Bord. bronchiseptica BO9; Bord. bronchiseptica BO9, DST Agar, 10^4 organisms, 18 hours 37° C., read-out: MIC): 1.25 µg/mL (≈ 2.61 µM)
- MIC (Past. multocida PA2; Past. multocida PA2, DST Agar, 10^4 organisms, 18 hours 37° C., read-out: MIC): > 0.019 µg/mL
- MIC (Staph. aureus 152; Staphylococcus aureus, Staph. aureus 152, DST Agar, 10^4 organisms, 18 hours 37° C., read-out: MIC): 0.156 µg/mL (≈ 0.325 µM)
- MIC [2]: 1.25 µg/mL (≈ 2.61 µM)
- MIC ([3]; NCTC8163, Erysipelothrix rhusiopathiae NCTC 8163, DST Agar, 10^4 organisms, 18 hours 37° C., read-out: MIC): 10 µg/mL (≈ 20.9 µM)
- MIC [4]: > 80 µg/mL
- MIC (E. Coli NCTC 10418; NCTC10418, E. Coli NCTC 10418, DST Agar, 10^4 organisms, 18 hours 37° C., read-out: MIC): 40 µg/mL (≈ 83.4 µM)
- MIC (Strep. dylgalactiae SPD1; Strep. dylgalactiae SPD1, DST Agar, 10^4 organisms, 18 hours 37° C., read-out: MIC): 0.07 µg/mL (≈ 0.146 µM)
- MIC (Past. multocida PA1; Past. multocida PA1, DST Agar, 10^4 organisms, 18 hours 37° C., read-out: MIC): 0.156 µg/mL (≈ 0.325 µM)
- MIC (Strep. uberis SPO1; Strep. uberis SPO1, DST Agar, 10^4 organisms, 18 hours 37° C., read-out: MIC): 0.039 µg/mL (≈ 0.0813 µM)
- MIC [5]: 0.05 µg/mL (≈ 0.104 µM)
- MIC (M. bovis RCTC 10131): < 0.01 µg/mL
- MIC [6]: 0.05 µg/mL (≈ 0.104 µM)

Structure (SMILES): C/C(=C\C(=O)OCc1ccc([N+](=O)[O-])c([N+](=O)[O-])c1)CC1OCC(CC2OC2C(C)C(C)O)C(O)C1O (stereo not drawn) [Example 9, 3,4-dinitrobenzyl monate A]
- MIC [1]: ≤ 0.01 µg/mL
- MIC (M. hyorhinis ATCC 23234): 0.25 µg/mL (≈ 0.477 µM)
- MIC (M. suipneumoniae Str. 11): 0.25 µg/mL (≈ 0.477 µM)
- MIC (M. suipneumoniae OCD 1): 0.5 µg/mL (≈ 0.953 µM)
- MIC (M. suipneumoniae LABER): 0.25 µg/mL (≈ 0.477 µM)
- MIC (M. suipneumoniae MS 16): 0.25 µg/mL (≈ 0.477 µM)
- MIC (M. gallisepticum S6): 5 µg/mL (≈ 9.53 µM)
- MIC (S. typhimurium S18; TYPHIMURIUM, 18 h): 80 µg/mL (≈ 153 µM)
- MIC (S. dublin S7; S7, 18 h): > 80 µg/mL
- MIC (Staph. aureus B4; B4, 18 h): 0.625 µg/mL (≈ 1.19 µM)
- MIC (Staph. aureus Oxford; 18 h): 0.312 µg/mL (≈ 0.595 µM)
- MIC (Bord. bronchiseptica BO8): 10 µg/mL (≈ 19.1 µM)
- MIC (Strep. agalactiae SPA1; SPA1, 18 h): 0.312 µg/mL (≈ 0.595 µM)
- MIC (Past. haemolytica PA5): 5 µg/mL (≈ 9.53 µM)
- MIC (E. Coli E1; 18 h): 80 µg/mL (≈ 153 µM)
- MIC (Bord. bronchiseptica BO9; BO9, 18 h): 5 µg/mL (≈ 9.53 µM)
- MIC (Past. multocida PA2; PA2, 18 h): 0.156 µg/mL (≈ 0.297 µM)
- MIC (Staph. aureus 152; [7]): 0.312 µg/mL (≈ 0.595 µM)
- MIC [2]: 5 µg/mL (≈ 9.53 µM)
- MIC [3, 8]: 40 µg/mL (≈ 76.3 µM)
- MIC [4]: > 80 µg/mL
- MIC (E. Coli NCTC 10418; NCTC10418, 18 h): 80 µg/mL (≈ 153 µM)
- MIC (Strep. dylgalactiae SPD1; 18 h): 0.07 µg/mL (≈ 0.133 µM)
- MIC (Past. multocida PA1; PA1, 18 h): 0.625 µg/mL (≈ 1.19 µM)
- MIC (Strep. uberis SPO1; SPO1, 18 h): 0.156 µg/mL (≈ 0.297 µM)
- MIC [5]: 0.25 µg/mL (≈ 0.477 µM)
- MIC (M. bovis RCTC 10131): ≤ 0.01 µg/mL
- MIC [6]: 0.25 µg/mL (≈ 0.477 µM)

Structure (SMILES): C/C(=C\C(=O)OCc1cc([N+](=O)[O-])cc([N+](=O)[O-])c1)CC1OCC(CC2OC2C(C)C(C)O)C(O)C1O (stereo not drawn) [Example 6, 3,5-dinitrobenzyl monate A]
- MIC [1]: ≤ 0.01 µg/mL
- MIC (M. hyorhinis ATCC 23234): 0.025 µg/mL (≈ 0.0477 µM)
- MIC (M. suipneumoniae Str. 11): 0.025 µg/mL (≈ 0.0477 µM)
- MIC (M. suipneumoniae OCD 1): 0.05 µg/mL (≈ 0.0953 µM)
- MIC (M. suipneumoniae LABER): 0.025 µg/mL (≈ 0.0477 µM)
- MIC (M. suipneumoniae MS 16): 0.025 µg/mL (≈ 0.0477 µM)
- MIC (M. gallisepticum S6): 5 µg/mL (≈ 9.53 µM)
- MIC (S. typhimurium S18; TYPHIMURIUM, 18 h): 80 µg/mL (≈ 153 µM)
- MIC (S. dublin S7; S7, 18 h): > 80 µg/mL
- MIC (Staph. aureus B4; B4, 18 h): 0.312 µg/mL (≈ 0.595 µM)
- MIC (Staph. aureus Oxford; 18 h): 0.312 µg/mL (≈ 0.595 µM)
- MIC (Bord. bronchiseptica BO8): 40 µg/mL (≈ 76.3 µM)
- MIC (Strep. agalactiae SPA1; SPA1, 18 h): 0.312 µg/mL (≈ 0.595 µM)
- MIC (Past. haemolytica PA5): 5 µg/mL (≈ 9.53 µM)
- MIC (E. Coli E1; 18 h): 80 µg/mL (≈ 153 µM)
- MIC (Bord. bronchiseptica BO9; BO9, 18 h): 10 µg/mL (≈ 19.1 µM)
- MIC (Past. multocida PA2; PA2, 18 h): 0.625 µg/mL (≈ 1.19 µM)
- MIC (Staph. aureus 152; [7]): 0.312 µg/mL (≈ 0.595 µM)
- MIC [2]: 20 µg/mL (≈ 38.1 µM)
- MIC [3, 8]: 20 µg/mL (≈ 38.1 µM)
- MIC [4]: > 80 µg/mL
- MIC (E. Coli NCTC 10418; NCTC10418, 18 h): 80 µg/mL (≈ 153 µM)
- MIC (Strep. dylgalactiae SPD1; 18 h): 0.312 µg/mL (≈ 0.595 µM)
- MIC (Past. multocida PA1; PA1, 18 h): 1.25 µg/mL (≈ 2.38 µM)
- MIC (Strep. uberis SPO1; SPO1, 18 h): 0.07 µg/mL (≈ 0.133 µM)
- MIC [5]: 0.025 µg/mL (≈ 0.0477 µM)
- MIC (M. bovis RCTC 10131): ≤ 0.01 µg/mL
- MIC [6]: 0.05 µg/mL (≈ 0.0953 µM)
